Patent US5965106A, “In vivo binding pair pretargeting” (PerImmune Holdings, Inc., priority 1995, dated 1999)

Assays:
16.88 bound rhDHFR = assay: Inhibition of DHFR bound in an antibody-DHFR complex by MTX and DTPA-MTX, versus native rhDHFR; details: 16.88-DHFR titrated to activity of native rhDHFR
rhDHFR [1] = assay: Inhibition of rhDHFR by MTX and DTPA-MTX (dihydrofolate reduction, A340); assay type: biochemical, human; details: 1×10^-8 M and 5×10^-9 M inhibitor concentration, 22° C., pH 7.5
Procedure: Dihydrofolate reductase concentrations of 10^-7 -10^-9 M are easily assayed by monitoring the time dependent decrease in A340 caused by the reduction of dihydrofolate and the oxidation of the cofactor nicotinadenine dinucleotide phosphate (NADPH). The assay is performed at 22° C. (room temperature) in 50 mM Tris, pH 7.5 and 60 μM NADPH and initiated by adding dihydrofolate to 50 μM. One enzyme unit is equivalent to the amount of enzyme required to reduce 1 μmole of dihydrofolate to 1 μmole tetrahydrofolate in 1 min. at 22° C. and can be quantitated using an extinction coefficient of 12,300 M^-1 cm^-1.
The inhibition rate of DHFR by MTX and its derivatives is determined by the decrease in the conversion of dihydrofolate to tetrahydrofolate. […] Derivatives of methotrexate are evaluated by comparing inhibition rates to the inhibition rate of MTX at equivalent concentrations.
The effects of modifying methotrexate with DPTA were unknown and required a comparison of the activity of equimolar concentrations of methotrexate and DTPA-MTX. […] The inhibition of rhDHFR by MTX and DTPA-MTX were then measured under the assay conditions mentioned earlier and compared.

[2] = tested on: wild-type recombinant human dihydrofolate reductase (rhDHFR); details: noncovalent binding; cited from earlier work
[3] = Whole body clearance from athymic mice; assay type: in vivo, athymic nu/nu mice; details: 50 uCi, lateral tail vein, 0.5-24 hours
Procedure: Clearance of the ^111 In-DTPA-MTX at a rate similar to that of ^111 In-DTPA would indicate that rapid body clearance of the portion of the conjugate not bound in tumor tissue by antibody-DHFR may be expected. Such rapid clearance would ensure that nearly all the unbound radionuclide would decay outside the body.
Three athymic nu/nu mice were injected via the lateral tail vein with 50 uCi ^111 In-DTPA-MTX in 0.5 mL 10% normal mouse serum in phosphate buffered normal saline. A second group of three animals received 50 uCi ^111 In-DTPA by the same route. All animal were examined for whole body retention of In-111 in a Capintec dose calibrator at 0.5, 1, 2, 3, 4, and 24 hours after injection.

[4] = Biodistribution and clearance in nude mice; assay type: in vivo, nude mouse
Procedure: In order to compare the biodistribution and clearance of ^111 In-DTPA-MTX with that of ^111 In-DTPA in the nude mouse, ^111 In-DTPA-MTX is administered at a dose of 9 μg and 8 μCi and ^111 In-DTPA is administered at a dose of 9 μg and 7 μCi by intravenous injection into the lateral tail vein. Animals are sacrificed a 1, 2, 4 and 24 hours after injection in groups of three animals per time point. […] In addition, there is low uptake of the MTX conjugate in the liver which is not seen with the labeled DTPA.

[5] = Biodistribution and clearance in rabbits; assay type: in vivo, New Zealand white rabbit; details: rabbit
Procedure: In order to compare the biodistribution and clearance of ^111 In-DTPA-MTX with that of ^111 In-DTPA in the New Zealand white rabbit, approximately 140-190 μg and 120 μCi of each agent is administered to three animals each by intravenous injection in the central ear […]. One animal of each group is sacrificed at 1, 4 and 24 hours after injection.

[6] = in vivo; cited from earlier work
rhDHFR [7] = assay: Stability of conjugated enzyme: percent DHFR activity remaining; assay type: physicochemical, human
Procedure: A 10-fold molar excess of the photoaffinity analog was mixed with the enzyme, and the volume adjusted to a protein concentration of 1 mg/ml using 10 mM Tris-HCl buffer (pH 7.5). The mixture was kept in ice at a 10 cm distance from the light source while photoactivation was carried out for 5 minutes with occasional stirring. An aliquot was assayed for DHFR activity before and after photoactivation. The NADP^+ -linked enzyme was purified by gel-filtration using 10 mM sodium phosphate buffer, pH 7.2, containing 20 mM NaCl. Fractions were assayed for DHFR activity before they were pooled for protein estimation (using Pierce BCA reagent) and determination of incorporation of NADP^+ moieties per enzyme molecule.
[…] Percent stability was calculated by comparing with a sample kept at 4° C.

CN(Cc1cnc2nc(N)nc(N)c2n1)c1ccc(C(=O)N[C@@H](CCC(=O)NNC(=O)CN(CCN(CCN(CC(=O)O)CC(=O)O)CC(=O)O)CC(=O)O)C(=O)O)cc1 [DTPA-MTX]
inhibition of/binding to 16.88 bound rhDHFR compared with equivalent activity of native rhDHFR (16.88 bound rhDHFR): confirmed the methotrexate data | inhibitory effect on dihydrofolate reduction compared with MTX (rhDHFR [1]): virtually identical to MTX inhibition

NC(=O)C1=CN([C@@H]2O[C@H](COP(=O)(O)OP(=O)(O)OC[C@H]3O[C@@H](n4cnc5c(N)ncnc54)[C@H](OP(=O)(O)O)[C@@H]3O)[C@@H](O)[C@H]2O)C=CC1 [NADPH, nicotinadenine dinucleotide phosphate]
protection of rhDHFR from thermal denaturation [2]: capable of protecting

NC(=O)c1ccc[n+]([C@@H]2O[C@H](COP(=O)([O-])OP(=O)(O)OC[C@H]3O[C@@H](n4cnc5c(N)ncnc54)[C@H](OP(=O)(O)O)[C@@H]3O)[C@@H](O)[C@H]2O)c1 [NADP]
protection of rhDHFR from thermal denaturation [2]: capable of protecting

O=C([O-])CN(CCN(CC(=O)[O-])CC(=O)[O-])CCN(CC(=O)[O-])CC(=O)[O-].[111In+3].[H+].[H+] [^111 In-DTPA]
whole body clearance [3]: clear from the mice at similar rates | injected dose per gram (ml) remaining in the serum ([4]; 1 hour post injection, i.v., 9 μg): less than 0.2% | kidney activity (clearance via urine) ([4]; nude mouse, all time points 1-24 hours): activity in the kidney at all time points | liver uptake ([4]; nude mouse, i.v.): not seen | kidney activity levels ([5]; i.v.): Low activity levels | urine activity (clearance via urine) ([5]; i.v. 140-190 μg, 120 μCi): high urine activity levels | clearance from the circulation [6]: clear rapidly from the circulation | retention in normal tissues [6]: little retention in normal tissues

B1: ANPAP-NADP^+ -rhDHFR: DHFR stabilized through covalent conjugation with a photoaffinity analog of NADP^+ (ANPAP-NADP) followed by photoactivation (conjugate, UniProt P00374 1-187, looked up)
Dihydrofolate reductase: MVGSLNCIVAVSQNMGIGKNGDLPWPPLRNEFRYFQRMTTTSSVEGKQNLVIMGKKTWFSIPEKNRPLKGRINLVLSRELKEPPQGAHFLSRSLDDALKLTEQPELANKVDMVWIVGGSSVYKEAMNHPGHLKLFVTRIMQDFESDTFFPEIDLEKYKLLPEYPGVLSDVQEEKGIKYKFEVYEKND
modifications: photo-crosslinked ANPAP-NADP+ analog
Stability: percent enzyme activity remaining after incubation (rhDHFR [7]; 0 minutes, 37° C.): 100% | Stability: percent enzyme activity remaining after incubation (rhDHFR [7]; 60 minutes, 37° C.): 82% | Stability: percent enzyme activity remaining after incubation (rhDHFR [7]; 120 minutes, 37° C.): 78% | Stability: percent enzyme activity remaining after incubation (rhDHFR [7]; 180 minutes, 37° C.): 78% | Stability: percent enzyme activity remaining after incubation (rhDHFR [7]; 1080 minutes, 23° C.): 67% | Percent remaining activity following photoactivation (rhDHFR [7]; photoactivation time 5 minutes): 100%

B2: rhDHFR: recombinant human dihydrofolate reductase (protein, UniProt P00374 1-187, looked up)
Dihydrofolate reductase: MVGSLNCIVAVSQNMGIGKNGDLPWPPLRNEFRYFQRMTTTSSVEGKQNLVIMGKKTWFSIPEKNRPLKGRINLVLSRELKEPPQGAHFLSRSLDDALKLTEQPELANKVDMVWIVGGSSVYKEAMNHPGHLKLFVTRIMQDFESDTFFPEIDLEKYKLLPEYPGVLSDVQEEKGIKYKFEVYEKND
Stability: percent enzyme activity remaining after incubation (rhDHFR [7]; 0 minutes, 37° C.): 100% | Stability: percent enzyme activity remaining after incubation (rhDHFR [7]; 30 minutes, 37° C.): 18% | Stability: percent enzyme activity remaining after incubation (rhDHFR [7]; 60 minutes, 37° C.): 10%
